The source of these data is ChEMBL document CHEMBL5518206, “Hit-to-Lead Identification and Validation of a Triaromatic Pleuromutilin Antibiotic Candidate” (J Med Chem, 2024).

Each structure is given as a SMILES string. pIC50, pKi: −log10 of the molar value. Activity calls are given as the source filed them. No cut-off for these calls is given here.

The nature of data set [1]: AUC (0 to infinity) in NMRI female mouse at 20 mg/kg, sc by HPLC analysis. The conditions noted are these: in vivo. Format: ADME, organism-based.
Data set [2] in a line: Clearance in NMRI female mouse at 20 mg/kg, sc by HPLC analysis. Format: ADME, organism-based. The conditions noted are these: in vivo.
A short description of data set [3]: Cmax in NMRI female mouse at 60 mg/kg, sc by HPLC analysis. The conditions noted are these: in vivo. It is filed as ADME, organism-based.
A short description of data set [4]: Tmax in NMRI female mouse at 60 mg/kg, sc by HPLC analysis. It is filed as ADME, organism-based. The conditions noted are these: in vivo.
Data set [5] is described as follows: Elimination rate constant in NMRI female mouse at 60 mg/kg, sc by HPLC analysis. Format: ADME, organism-based. The following applies: in vivo.
Data set [6] can be described thus: Half life in NMRI female mouse at 60 mg/kg, sc by HPLC analysis. Format: ADME, organism-based. The following applies: in vivo.
Data set [7] can be described thus: Volume of distribution in NMRI female mouse at 60 mg/kg, sc by HPLC analysis. The following applies: in vivo. It is filed as ADME, organism-based.
Data set [8] in a line: Bioavailability in NMRI female mouse at 60 mg/kg, sc by HPLC analysis. Format: ADME, organism-based. The following applies: in vivo.
Data set [9] can be described thus: Half life in NMRI female mouse at 30 mg/kg, iv by HPLC analysis. The conditions noted are these: in vivo. Format: ADME, organism-based.
The nature of data set [10]: Volume of distribution in NMRI female mouse at 30 mg/kg, iv by HPLC analysis. The conditions noted are these: in vivo. Format: ADME, organism-based.
Data set [11] in a line: Cmax in NMRI female mouse at 30 mg/kg, po by HPLC analysis. Format: ADME, organism-based. The following applies: in vivo.
The nature of data set [12]: Tmax in pig plasma at 3 mg/kg, iv measured upto 240 mins by LC-MS/MS analysis. It is filed as ADME, organism-based, Sus scrofa.
The nature of data set [13]: AUC (0 to infinity) in pig plasma at 3 mg/kg, iv measured upto 240 mins by LC-MS/MS analysis. Format: ADME, organism-based, Sus scrofa. The conditions noted are these: in vivo, 4 h.
Data set [14] is described as follows: Clearance in pig plasma at 3 mg/kg, iv measured upto 240 mins by LC-MS/MS analysis. It is filed as ADME, organism-based, Sus scrofa.
Data set [15] is described as follows: Cmax in pig urine at 3 mg/kg, iv measured upto 240 mins by LC-MS/MS analysis. Format: ADME, organism-based, Sus scrofa.
A short description of data set [16]: Half life in pig urine at 3 mg/kg, iv measured upto 240 mins by LC-MS/MS analysis. Format: ADME, organism-based, Sus scrofa.
The nature of data set [17]: Tmax in pig plasma at 10 mg/kg, po measured upto 240 mins by LC-MS/MS analysis. It is filed as ADME, organism-based, Sus scrofa.
Data set [18] is described as follows: AUC (0 to infinity) in pig plasma at 10 mg/kg, po measured upto 240 mins by LC-MS/MS analysis. Format: ADME, organism-based, Sus scrofa. The conditions noted are these: in vivo, 4 h.
Data set [19] is described as follows: Clearance in pig plasma at 10 mg/kg, po measured upto 240 mins by LC-MS/MS analysis. Format: ADME, organism-based, Sus scrofa.
Data set [20] is described as follows: Bioavailability in pig plasma at 10 mg/kg, po measured upto 240 mins by LC-MS/MS analysis. It is filed as ADME, organism-based, Sus scrofa.
Data set [21] in a line: Tmax in pig urine at 10 mg/kg, po measured upto 240 mins by LC-MS/MS analysis. It is filed as ADME, organism-based, Sus scrofa.
Data set [22] is described as follows: Elimination rate constant in pig urine at 10 mg/kg, po measured upto 240 mins by LC-MS/MS analysis. It is filed as ADME, organism-based, Sus scrofa.
A short description of data set [23]: Half life in pig urine at 10 mg/kg, po measured upto 240 mins by LC-MS/MS analysis. It is filed as ADME, organism-based, Sus scrofa.
Data set [24] can be described thus: AUC (0 to infinity) in pig urine at 10 mg/kg, po measured upto 240 mins by LC-MS/MS analysis. It is filed as ADME, organism-based, Sus scrofa. The following applies: in vivo, 4 h.
Data set [25] has as its target ATP-dependent translocase ABCB1 (Homo sapiens, UniProt P08183). Put plainly: Inhibition of P-gp in human Caco-2 cells using digoxin as substrate. It is filed as cell-based.
The next data set has as its target Cytochrome P450 3A4 (Homo sapiens, UniProt P08684). The data set is described as follows: Inhibition of CYP3A4 in pooled human liver microsomes using midazolam as substrate. It is filed as ADME, Microsome. (Liver microsomes are a subcellular fraction often used to study metabolism.)
A short description of data set [26]: Cardio-toxicity in human assessed as QT prolongation by measuring increase in mean QTc.
In the next data set the test system is Listeria. Put plainly: Antibacterial activity against Listeria assessed as inhibition of visible growth incubated for 20 to 24 hrs by microbroth serial dilution assay. The following applies: time 20-24 hrs. It is filed as functional, organism-based. (In general: Dilution methods test growth across graded concentrations, often in twofold steps.)
For data set [27], the system named is Staphylococcus epidermidis. Put plainly: Antibacterial activity against Staphylococcus epidermidis assessed as inhibition of visible growth incubated for 20 to 24 hrs by microbroth serial dilution assay. The conditions noted are these: time 20-24 hrs. It is filed as functional, organism-based.
For data set [28], the system named is Staphylococcus aureus. The data set is described as follows: Antibacterial activity against multi drug-resistant Staphylococcus aureus USA300 FPR3757 assessed as reduction in bacterial growth at 1 times of MIC concentration measured after 24 hrs by time-kill assay. It is filed as functional, organism-based.
Data set [29] concerns Staphylococcus aureus. Put plainly: Induction of resistant development in -(6-(6-(Piperazin-1-y1)-9H-purin-9-y)methyl)pyridin-3-y1)-1H-1,2,3-triazol-1-yl)-22-deoxypleuromutilin-16 passages resistance developed Staphylococcus aureus USA300 FPR3757 assessed as fold increase in MIC at sub-MIC concentration measured after 5 passages with conjugate by serial passage assay. Format: functional.

Data set [30] concerns Staphylococcus aureus. The data set is described as follows: Induction of resistant development in -(6-(6-(Piperazin-1-y1)-9H-purin-9-y)methyl)pyridin-3-y1)-1H-1,2,3-triazol-1-yl)-22-deoxypleuromutilin-16 passages resistance developed Staphylococcus aureus USA300 FPR3757 assessed as fold increase in MIC at sub-MIC concentration measured after 9 passages with conjugate by serial passage assay. Format: functional.

In data set [31] the test system is Staphylococcus aureus. Put plainly: Induction of resistant development in -(6-(6-(Piperazin-1-y1)-9H-purin-9-y)methyl)pyridin-3-y1)-1H-1,2,3-triazol-1-yl)-22-deoxypleuromutilin-16 passages resistance developed Staphylococcus aureus USA300 FPR3757 assessed as fold increase in MIC at sub-MIC concentration measured after 22 passages with conjugate by serial passage assay. It is filed as functional.

In data set [32] the test system is Staphylococcus aureus. Put plainly: Induction of resistant development in lefamulin 5 passages resistance developed Staphylococcus aureus USA300 FPR3757 assessed as fold increase in MIC at sub-MIC concentration measured after 13 passages with conjugate by serial passage assay. It is filed as functional.
Data set [33] deals with Staphylococcus aureus. Put plainly: Induction of resistant development in lefamulin 5 passages resistance developed Staphylococcus aureus USA300 FPR3757 assessed as fold increase in MIC at sub-MIC concentration measured after 22 passages with conjugate by serial passage assay. Format: functional.
The test system of data set [34] is Staphylococcus aureus. The data set is described as follows: Induction of resistant development in lefamulin 5 passages resistance developed Staphylococcus aureus USA300 FPR3757 assessed as fold increase in MIC at sub-MIC concentration measured after 25 passages with conjugate by serial passage assay. Format: functional.
The subject of data set [35] is Staphylococcus aureus. The data set is described as follows: Induction of resistant development in linezolid 5 passages resistance developed Staphylococcus aureus USA300 FPR3757 assessed as fold increase in MIC at sub-MIC concentration measured after 5 passages with conjugate by serial passage assay. Format: functional.
The test system of data set [36] is Staphylococcus aureus. Put plainly: Induction of resistant development in linezolid 5 passages resistance developed Staphylococcus aureus USA300 FPR3757 assessed as fold increase in MIC at sub-MIC concentration measured after 13 passages with conjugate by serial passage assay. It is filed as functional.
Data set [37] relates to Staphylococcus aureus. The data set is described as follows: Induction of resistant development in linezolid 5 passages resistance developed Staphylococcus aureus USA300 FPR3757 assessed as fold increase in MIC at sub-MIC concentration measured after 25 passages with conjugate by serial passage assay. It is filed as functional.
Data set [38] concerns Staphylococcus aureus. Put plainly: Induction of resistant development in linezolid 5 passages resistance developed Staphylococcus aureus USA300 FPR3757 assessed as fold increase in MIC at sub-MIC concentration measured after 28 passages with conjugate by serial passage assay. It is filed as functional.

Chain of Cytochrome P450 3A4 (P08684 whole entry): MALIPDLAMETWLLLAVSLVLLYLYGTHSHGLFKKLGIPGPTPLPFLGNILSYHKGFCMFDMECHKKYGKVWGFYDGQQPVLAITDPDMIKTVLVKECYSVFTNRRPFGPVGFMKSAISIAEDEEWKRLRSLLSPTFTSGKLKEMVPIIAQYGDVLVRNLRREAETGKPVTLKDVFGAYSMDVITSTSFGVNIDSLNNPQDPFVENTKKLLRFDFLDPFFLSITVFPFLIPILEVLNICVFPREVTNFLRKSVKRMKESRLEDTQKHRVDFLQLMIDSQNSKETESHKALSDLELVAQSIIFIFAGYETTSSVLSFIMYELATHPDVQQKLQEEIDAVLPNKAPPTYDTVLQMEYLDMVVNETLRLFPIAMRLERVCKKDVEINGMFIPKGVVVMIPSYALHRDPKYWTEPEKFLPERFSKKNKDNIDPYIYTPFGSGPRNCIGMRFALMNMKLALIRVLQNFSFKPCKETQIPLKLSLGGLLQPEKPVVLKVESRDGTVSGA
Chain of ATP-dependent translocase ABCB1 (P08183 whole entry): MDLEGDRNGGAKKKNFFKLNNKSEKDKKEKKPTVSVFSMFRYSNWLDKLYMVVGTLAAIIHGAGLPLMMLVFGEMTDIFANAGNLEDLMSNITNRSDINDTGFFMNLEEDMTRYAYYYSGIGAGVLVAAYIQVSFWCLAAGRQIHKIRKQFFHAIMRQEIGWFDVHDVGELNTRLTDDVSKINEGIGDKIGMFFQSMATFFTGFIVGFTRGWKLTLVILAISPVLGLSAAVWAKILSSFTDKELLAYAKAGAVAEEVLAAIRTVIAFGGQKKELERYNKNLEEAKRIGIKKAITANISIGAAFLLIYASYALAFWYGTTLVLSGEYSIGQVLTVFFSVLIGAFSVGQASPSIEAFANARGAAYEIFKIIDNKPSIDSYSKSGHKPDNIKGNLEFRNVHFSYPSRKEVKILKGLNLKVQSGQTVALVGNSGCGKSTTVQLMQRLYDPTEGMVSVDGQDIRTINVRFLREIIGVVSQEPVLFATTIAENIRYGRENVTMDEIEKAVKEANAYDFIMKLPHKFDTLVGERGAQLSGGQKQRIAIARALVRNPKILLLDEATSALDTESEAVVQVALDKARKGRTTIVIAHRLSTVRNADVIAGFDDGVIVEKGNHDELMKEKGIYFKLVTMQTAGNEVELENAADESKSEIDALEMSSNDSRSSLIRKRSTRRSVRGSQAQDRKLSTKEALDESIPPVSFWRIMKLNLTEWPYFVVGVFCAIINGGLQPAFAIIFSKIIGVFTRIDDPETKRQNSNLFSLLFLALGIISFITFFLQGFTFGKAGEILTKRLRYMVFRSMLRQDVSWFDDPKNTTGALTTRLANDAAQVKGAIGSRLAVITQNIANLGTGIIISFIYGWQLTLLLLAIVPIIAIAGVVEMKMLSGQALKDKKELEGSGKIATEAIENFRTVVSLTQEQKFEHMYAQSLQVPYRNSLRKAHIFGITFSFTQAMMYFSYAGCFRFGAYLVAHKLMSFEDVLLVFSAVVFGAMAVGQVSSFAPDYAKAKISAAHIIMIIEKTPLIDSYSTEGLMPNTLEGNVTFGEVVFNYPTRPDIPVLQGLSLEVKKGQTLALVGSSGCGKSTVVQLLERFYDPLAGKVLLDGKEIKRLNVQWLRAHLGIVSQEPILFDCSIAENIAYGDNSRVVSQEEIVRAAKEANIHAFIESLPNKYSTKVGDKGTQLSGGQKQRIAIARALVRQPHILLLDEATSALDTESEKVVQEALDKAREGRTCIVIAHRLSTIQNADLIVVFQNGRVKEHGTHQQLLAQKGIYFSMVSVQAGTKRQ

Take `C=C[C@]1(C)C[C@@H](OC(=O)Cn2cc(-c3ccc(Cn4cnc5c(N6CCNCC6)ncnc54)nc3)nn2)[C@]2(C)[C@H](C)CC[C@]3(CCC(=O)[C@H]32)[C@@H](C)[C@@H]1O`: the AUC in data set [1] was 222 µg/mL/min; in data set [13], 35.5 µg/mL/min; in [18] it was 7.1 µg/mL/min; in data set [24], 22.5 µg/mL/min. Besides, the CL/F was 90.3 mL/min/kg in [2] and 1420 mL/min/kg in data set [19]. For the same compound, the Cmax in data set [3] came out at 2560 ng/mL; in data set [11], 8.2 ng/mL; in data set [15] it was 18700 ng/mL. For the same compound, the Tmax in data set [4] is 15 min; in data set [12] it was 0 h; in data set [17], 15 min; in [21], 60 min. This compound showed a k el in data set [5] of 0.000102 s⁻¹. In addition, the half-life was 114 min in data set [6], 52.8 min in [9], 27.6 min in data set [16] and 132 min in [23]. Moreover, the Vd turned out to be 22 L/kg in data set [7] and 3.5 L/kg in [10]. Moreover, the bioavailability in data set [8] was 33%; in [20], 6%. The clearance in [14] was 84.7 mL/min/kg. In [22], this compound had a k el at 4 h of 8.67e-05 s⁻¹.

On to `C=C[C@]1(C)C[C@@H](OC(=O)CS[C@@H]2CC[C@@H](N)C[C@H]2O)[C@]2(C)[C@H](C)CC[C@]3(CCC(=O)[C@H]32)[C@@H](C)[C@@H]1O` [LEFAMULIN], for which the negative logarithm of the IC50 (pIC50) in data set [25] was 4.47. Besides, on Cytochrome P450 3A4, the pKi is 6.07. Further, in data set [26], the QTc increase is 10 ms. Moreover, the result (with Listeria; in data set [27]; in the data set on Staphylococcus aureus [28]) was inactive. For the same compound, the fold change (FC) in the data set with Staphylococcus aureus [29] came to 8; in the data set on Staphylococcus aureus [30], 8; in the data set on Staphylococcus aureus [31], 32; in the data set with Staphylococcus aureus [32], 32; with Staphylococcus aureus [33], 32; with Staphylococcus aureus [34], 64. The fold change (FC) in the data set on Staphylococcus aureus [35] amounted to 4; in the data set on Staphylococcus aureus [36], 16; in the data set with Staphylococcus aureus [37], 32; in the data set on Staphylococcus aureus [38], 32.

One may read the CL/F as the apparent clearance, not corrected for the fraction that reaches the circulation. The term Cmax denotes the highest concentration seen after dosing. Broadly, the Tmax is the time at which the peak concentration occurs. As a reminder, the half-life is how long it takes for the measured level to halve. Read a low half-life as fast loss. The term bioavailability denotes the share of a dose that reaches the circulation, judged against a reference dose that is usually intravenous. Low readings indicate little systemic uptake, high ones much systemic uptake. In general, clearance refers to the volume of plasma or blood freed of the substance per unit of time. As usually defined, the pIC50 is the negative decadic logarithm of the IC50, by convention in mol/L. By pKi is commonly meant −log10 of the Ki, conventionally taken in molar units. Low values mean a high Ki, high ones a low Ki.
